According to PubChem BioAssay (NCI):
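Where inhibition never reached the appropriate level, the endpoint shown equals the highest concentration tested. Otherwise, values were interpolated linearly from a five-concentration, 48-hour dose response in 96-well plates. GI50 = concentration required for 50% inhibition of growth. At the TGI there is no net growth.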

Tests used:
Experiment in all cases: NCI-60 cell line screen, 48 h
[1] = tested on: A549 NSCLC
[2] = tested on: NCI-H23 lung
[3] = tested on: SN12C renal
[4] = tested on: MALME-3M melanoma
[5] = tested on: HCC-2998 colon
[6] = tested on: NCI-H522 lung
[7] = tested on: NCI-H460 lung
[8] = tested on: 786-0 renal
[9] = tested on: K-562 leukemia
[10] = tested on: OVCAR-5 ovarian

| SMILES | TGI [1] | TGI [2] | TGI [3] | TGI [4] | TGI [5] | TGI [6] | TGI [7] | TGI [8] | TGI [9] | TGI [10] | GI50 [1] | GI50 [2] | GI50 [3] | GI50 [7] | GI50 [8] | GI50 [9] | GI50 [10] | GI50 [4] | GI50 [5] | GI50 [6] |
| --- | --- | --- | --- | --- | --- | --- | --- | --- | --- | --- | --- | --- | --- | --- | --- | --- | --- | --- | --- | --- |
| COC(=O)c1cc(-c2cccn2C)c2c(c1C(=O)OC)c1ccccc1n2C | > 100 µM | > 100 µM | > 100 µM | > 100 µM | > 100 µM | 80.9 µM | > 100 µM | > 100 µM | > 100 µM | – | – | – | – | – | – | – | – | – | – | – |
| CC(=O)NC1CC2Oc3ccc(C)cc3C(C)(O2)C1O (stereo not drawn) | > 100 µM | > 100 µM | > 100 µM | > 100 µM | – | > 100 µM | > 100 µM | > 100 µM | > 100 µM | – | – | – | – | – | – | – | – | – | – | – |
| CC1CCC(C(C)C)C(O[C@@H]2OC(=O)C[C@@H]2Sc2ccccc2)C1 (stereo partly drawn) | 85.9 µM | 96.3 µM | 32 µM | 58.7 µM | 55.9 µM | – | 69.5 µM | 45.9 µM | 42.6 µM | 65.5 µM | – | – | – | – | – | – | – | – | – | – |
| CCOc1ccccc1/C=N\N=C(\N)N/N=C/c1ccccc1OCC | > 100 µM | > 100 µM | > 100 µM | – | – | – | > 100 µM | > 100 µM | > 100 µM | – | 4.25 µM | 5.86 µM | 5.89 µM | 3.16 µM | 4.42 µM | 0.707 µM | – | – | – | – |
| CCOC(=O)c1nc(-c2ccccc2)oc1OCC | > 100 µM | > 100 µM | > 100 µM | – | > 100 µM | > 100 µM | > 100 µM | > 100 µM | > 100 µM | – | – | – | – | – | – | – | – | – | – | – |
| CCCc1cc(=O)n2c(C(=O)Nc3ccccc3OC)c(C(=O)Nc3ccc(F)cc3)sc2n1 | 20.2 µM | > 160 µM | – | > 160 µM | > 160 µM | 68 µM | > 160 µM | 10.2 µM | 33.1 µM | > 160 µM | 5.27 µM | 37.1 µM | – | 39.8 µM | 2.91 µM | 4.64 µM | 69.3 µM | 59.5 µM | 131 µM | 17.7 µM |
| COc1cc(C(=O)/C=C/c2cccnc2Nc2ccccc2)cc(OC)c1OC | 2.86 µM | 3 µM | 2.55 µM | 3.84 µM | 2.46 µM | 1.76 µM | 3.63 µM | 2.65 µM | – | 3.11 µM | 1.3 µM | 1.43 µM | 1.21 µM | 1.8 µM | 1.29 µM | – | 1.54 µM | 1.92 µM | 1.18 µM | 0.493 µM |
| Nc1cc(N)c2nc(-c3ccccc3)c(NCc3ccc(F)cc3)nc2c1 | 34.9 µM | 4.6 µM | 23.7 µM | – | – | > 100 µM | 25.6 µM | 62.2 µM | > 100 µM | 7.61 µM | 17.6 µM | 2.38 µM | 7.5 µM | 4.05 µM | 23.7 µM | 4.39 µM | 2.62 µM | – | – | > 100 µM |
| O=C(Nc1nc(=S)c2c(ncn2CCO)[nH]1)c1ccccc1 | > 100 µM | – | > 100 µM | > 100 µM | – | > 100 µM | > 100 µM | > 100 µM | > 100 µM | > 100 µM | – | – | – | – | – | – | – | – | – | – |
| CCCCCCCOc1c(OC)cc(C2CC(=O)Nc3c2c(C)nn3-c2nc3ccccc3[nH]2)cc1OC (stereo not drawn) | > 100 µM | 9.96 µM | > 100 µM | – | > 100 µM | 10.3 µM | 3.82 µM | 21.8 µM | > 100 µM | > 100 µM | 4.18 µM | 2.95 µM | 3.48 µM | 1.87 µM | 3.61 µM | 4.23 µM | 4.39 µM | – | 74.1 µM | 2.79 µM |
| CCN(CC)c1ccc(C(=N)c2ccc(N(C)C)cc2)cc1 | 11.4 µM | 3.19 µM | 9.14 µM | 4.76 µM | 5.69 µM | – | 10.8 µM | 4.45 µM | 12.8 µM | 6.78 µM | 1.62 µM | 0.218 µM | 2.36 µM | 1.69 µM | 1.71 µM | 0.127 µM | 2.04 µM | 0.205 µM | 1.85 µM | – |
| C=CCC(OCCOCC)c1cc(OCCOCC)ccc1OC (stereo not drawn) | > 100 µM | – | > 100 µM | > 100 µM | > 100 µM | > 100 µM | > 100 µM | > 100 µM | > 100 µM | > 100 µM | – | – | – | – | – | – | – | – | – | – |
| COC(=O)C1=C(O)c2cc3c(cc2[C@H](c2cc(OC)c(OC)c(OC)c2)C1C(=O)OC)OCO3 (stereo partly drawn) | > 100 µM | > 100 µM | 88 µM | 87.3 µM | > 100 µM | – | > 100 µM | > 100 µM | > 100 µM | > 100 µM | – | – | – | – | – | – | – | – | – | – |
| C[C@@H](NC1CCC[C@H]1O)c1ccccc1 (stereo partly drawn) | > 100 µM | – | > 100 µM | > 100 µM | > 100 µM | – | > 100 µM | > 100 µM | > 100 µM | > 100 µM | – | – | – | – | – | – | – | – | – | – |
| Cc1ccc2c(c1)C(=O)c1c-2n(CCCBr)c(=O)c2cc([N+](=O)[O-])ccc12 | > 100 µM | – | > 100 µM | > 100 µM | 77.6 µM | 96.2 µM | > 100 µM | > 100 µM | > 100 µM | > 100 µM | > 100 µM | – | 46.4 µM | 6.43 µM | 57.5 µM | 32.1 µM | > 100 µM | > 100 µM | 11.7 µM | 12.2 µM |
| Cc1[nH]c2ccccc2c1CCNCc1ccc(/C=C/C(=O)NO)cc1 | 0.101 µM | 0.15 µM | 0.317 µM | – | 0.0353 µM | 0.0324 µM | 0.838 µM | 0.49 µM | 0.0833 µM | 0.0911 µM | 0.0158 µM | 0.0246 µM | 0.0272 µM | < 0.01 µM | 0.0275 µM | < 0.01 µM | < 0.01 µM | – | 0.0121 µM | < 0.01 µM |
| O=C1NC2C=CN(Cc3ccccc3)C=C2C(=O)N2CCCC12 (stereo not drawn) | > 100 µM | > 100 µM | > 100 µM | > 100 µM | > 100 µM | > 100 µM | > 100 µM | > 100 µM | – | > 100 µM | – | – | – | – | – | – | – | – | – | – |
